The values that follow come from article PMC8191290, “Substrate specificities and reaction kinetics of the yeast oligosaccharyltransferase isoforms” (The Journal of Biological Chemistry, 2021).

The star is where a group is joined. 5‑TAMRA = CN(C)c1ccc2c(-c3ccc(C(=O)*)cc3C(=O)[O-])c3ccc(N(C)C)cc3[o+]c2c1

The target of assay [1] is T1, OST3 complex (Saccharomyces cerevisiae, UniProt P39007).
T1 construct: were purified separately from strains expressing only one type of complex; made in house; host or cells: Saccharomyces cerevisiae, BY4742-derived strain ost6::LEU2MX6 OST4-1D4::kanMX6 YEp352-OST3
Description: In vitro glycosylation assay, kinetic parameters for synthetic LLOs, OST3 complex. Type of assay: biochemical. Conditions: OST3 complex, under the tested conditions. The source says:
Synthetic LLO substrates all have two GlcNAcs as the sugar moiety, followed by pyrophosphate and lipid moieties (−R) of variable stereochemistry and length, denoted by the carbon chain length. C10, (S)-citronellyl; C15, farnesyl; C20, (S)-citronellylneryl; C25, (S)-citronellylfarnesyl; C90, represents the natural yeast dolichol lipid tail structure where n = 15. Figure modified from Ramirez et al. 2017 ([42]). B, quantification of kinetic parameters for the synthetic LLOs. Reactions were performed with 0.1 μM purified OST3 complex, 25 μM peptide TAMRA-YANATS, and varying concentrations of the different synthetic LLOs. Glycopeptide product was measured by UPLC and turnover rates were determined from the linear initial phase of the reaction. The mean of three reactions is shown and the data were fitted by nonlinear regression according to the Michaelis–Menten formula (R^2 = 0.9842 (LLO C15), 0.9685 (LLO C20), 0.9261 (LLO C25)) using Prism. Error bars indicate standard deviations from the mean (n = 3).
(§1) Concentrations of reactive LLO analogs were determined by in vitro glycosylation (see below) by titrating varying amounts of LLO against a known amount of fluorescently labeled peptide. Concentrations of nonreactive LLO analogs were determined by in vitro glycosylation by titrating varying amounts of nonreactive LLO while using known amounts of both fluorescently labeled peptide and active LLO analog.
Reactions were performed in a total volume of 10 μl containing the specified amount of TAMRA-labeled peptide, synthetic LLO analog, 10 mM MnCl2, and purified OST after size-exclusion chromatography in purification buffer (50 mM Hepes, pH 7.5, 150 mM NaCl, 1 mM MgCl2, 1 mM MnCl2, 10% (v/v) glycerol, 0.03% (w/v) DDM, and 0.006% (w/v) CHS). The concentration of OST was calculated using the molecular weight of 280 kDa. The reaction mixture was preincubated at 30 °C for 5 min before adding the peptide to start the reaction that proceeded at 30 °C. Time points were taken such that the reaction was in the linear phase. […]
(§2) Samples were analyzed by reverse-phase chromatography using a UPLC Dionex UltiMate 3000 with an Accucore 150-C18 100 × 2.1 mm 2.6 μm column (Thermo Fisher Scientific). One microliter sample (2 pmol of peptide) was injected and measured by isocratic elution using a certain proportion of ACN (15% ACN for peptide TAMRA-DANYTK; 20% ACN for peptide TAMRA-YANATS) in 10 mM KPO4, pH 8.0 buffer so that the glycopeptide and peptide are fully separated and elute within 3 min at a constant flow rate of 0.7 ml/min, with a column temperature of 45 °C. The peptide and glycopeptide were detected through TAMRA fluorescence (excitation wavelength: 546 nm; emission wavelength: 579 nm).
The UPLC profiles were analyzed by integrating the peaks corresponding to the glycopeptide and peptide using Chromeleon 7 (Dionex) and calculating the amount of glycopeptide formed using the following equation, as previously described ([43]): [GP]=PeakareaGP/PeakareaP+PeakareaGP×[P]
[GP] is the concentration of glycopeptide, Peak areaGP/P is the area under the curves measured for the glycopeptide or peptide, respectively, and [P] is the concentration of peptide at the start of the reaction. […] Unless specified otherwise, turnover rates were determined from the initial rates of reaction by taking into account the enzyme concentration in the reaction. […]

In assay [2] the target is T1, OST3 complex. Description: Peptide competition assay (unlabeled peptide vs TAMRA-DANYTK). Type of assay: biochemical. Conditions: 0.4 μM purified OST3 complex, 150 μM LLO C20, 25 μM TAMRA-DANYTK, 25 μM unlabeled competitor peptide, 30 min, relative to control without competitor. The method, then:
Figure 2 In vitro glycosylation assay for OST activity and peptide sequence preferences.A, schematic representation of the in vitro reaction setup for yeast OST activity. The peptide substrate containing the glycosylation sequon N-X-(S/T) is labeled with the TAMRA fluorophore at the N-terminus. Incubation with OST, synthetic LLO, and a divalent metal ion (Mn^2+preferred) results in the transfer of the sugar moiety (two GlcNAcs, blue squares) from the LLO to the fluorescently labeled peptide, yielding a glycopeptide product. […] The glycopeptide elutes earlier than the peptide and amounts of glycopeptide are quantified at different reaction time points by peak integration. C, quantification of kinetic parameters for synthetic peptide TAMRA-DANYTK. […] Glycopeptide product was measured by UPLC and turnover rates were determined by linear regression of the initial phase of the reaction and taking into account the enzyme concentration. […] E, quantification of kinetic parameters for synthetic peptide TAMRA-YANATS. […] Turnover rates were determined as in C. […]
(§3) Samples were analyzed by reverse-phase chromatography using a UPLC Dionex UltiMate 3000 with an Accucore 150-C18 100 × 2.1 mm 2.6 μm column (Thermo Fisher Scientific). […]

In another assay the test system is yeast OST3 complex. In words: Inhibition of OST activity by nonhydrolyzable LLO analogs. Type of assay: biochemical, Saccharomyces cerevisiae. Conditions: for IC50: 0.1 μM purified OST3 complex, 25 μM TAMRA-YANATS, 50 μM LLO C20, inhibitor 2.5–2000 μM (Ia) or 2.5–3000 μM (Ib), 30 °C, read-out: IC50 (apparent).
Description: Figure 4 Inhibition of yeast OST activity by synthetic nonhydrolyzable LLOs in vitro.A, structure of synthetic nonhydrolyzable LLOs. Synthetic nonreactive LLOs have two GlcNAcs as the sugar moiety, followed by pyrophosphonate and lipid moieties of variable stereochemistry and length, denoted by the carbon chain length. Ia, GlcNAc2-(OH)CPP-(S)-citronellylneryl (C20); Ib, GlcNAc2-CPP-(S)-citronellylfarnesyl (C25). Note that Ia is a hydroxy-phosphonate (with an additional OH group, single diastereomer, R/S configuration unassigned), while Ib is a phosphonate without an additional hydroxyl group. Figure modified from Ramirez et al. 2017 ([42]). B, quantification of inhibition by nonhydrolyzable LLOs shown in A. Reactions were performed with 0.1 μM purified OST3 complex, 25 μM peptide TAMRA-YANATS, 50 μM LLO C20, and varying concentrations of the different synthetic inhibitory LLOs. Glycopeptide product was measured by UPLC and turnover rates were determined from the linear initial phase of the reaction. % inhibition was determined relative to a control reaction without nonhydrolyzable LLOs. […]
as §1
Reactions were performed in a total volume of 10 μl containing the specified amount of TAMRA-labeled peptide, synthetic LLO analog, 10 mM MnCl2, and purified OST after size-exclusion chromatography in purification buffer (50 mM Hepes, pH 7.5, 150 mM NaCl, 1 mM MgCl2, 1 mM MnCl2, 10% (v/v) glycerol, 0.03% (w/v) DDM, and 0.006% (w/v) CHS). The concentration of OST was calculated using the molecular weight of 280 kDa. […]
as §3

The next assay concerns TbStt3A. The note with it: reported for TbStt3A, compound 34d; ref [42]; cited from earlier work. The text has this: The nonreactive LLO analogs Ia and Ib had the same disaccharide and lipid structures as the reactive LLO substrates LLO C20 and LLO C25, respectively. However, they differed from their reactive counterpar ...
The target in assay [3] is T1, OST3 complex. Description: Turnover of synthetic TAMRA-labeled peptides. Type of assay: biochemical. Conditions: 0.5 µM OST3 complex, 20 µM peptide. The procedure: TAMRA-labeled peptides with 5-TAMRA at the N-terminus and an amide group at the C-terminus were synthesized by WatsonBio Sciences. Unlabeled peptides (Table S1) were synthesized by Genscript Corp. and were designed so that the asparagine of the glycosylation sequon was in the middle (except for Peptide 8). Lyophilized peptides were dissolved in dimethyl sulfoxide (DMSO), unless specified otherwise, to a 3 mM stock solution and further diluted in ddH2O for reactions.
Reactions were performed in a total volume of 10 μl containing the specified amount of TAMRA-labeled peptide, synthetic LLO analog, 10 mM MnCl2, and purified OST after size-exclusion chromatography in purification buffer (50 mM Hepes, pH 7.5, 150 mM NaCl, 1 mM MgCl2, 1 mM MnCl2, 10% (v/v) glycerol, 0.03% (w/v) DDM, and 0.006% (w/v) CHS). The concentration of OST was calculated using the molecular weight of 280 kDa. The reaction mixture was preincubated at 30 °C for 5 min before adding the peptide to start the reaction that proceeded at 30 °C. Time points were taken such that the reaction was in the linear phase. At each time point, 1 μl reaction mixture was taken and the reaction was stopped by dilution in stop solution (0.1% FA in 10% ACN, 10 mM KPO4 pH 8.0) such that the final peptide concentration was 2 μM.
as §2
The UPLC profiles were analyzed by integrating the peaks corresponding to the glycopeptide and peptide using Chromeleon 7 (Dionex) and calculating the amount of glycopeptide formed using the following equation, as previously described ([43]): [GP]=PeakareaGP/PeakareaP+PeakareaGP×[P] […]
Supp. Table 2. Turnover of synthetic TAMRA-labeled peptides
Peptide Glycopeptide Turnover after 5 min Relative turnover […]
TAMRA, tetramethylrhodamine
Turnover of TAMRA-labeled peptides after 5 min was determined using 0.5 µM OST3 complex, 20 µM indicated peptide and 150 µM LLO C20. Relative turnover compared to TAMRA-DANYTK is given by defining TAMRA-DANYTK turnover as 100 %.

The target in assay [4] is Ost3p-containing yeast oligosaccharyltransferase complex (S. cerevisiae) (UniProt P41543).
Assay [5] has as its target Ost6p-containing yeast oligosaccharyltransferase complex (S. cerevisiae) (UniProt P41543).

For the molecule `CC(=O)NC1C(OC2C(CO)OC(OP(=O)(O)OP(=O)(O)OCCC(C)CCC=C(C)C)C(NC(C)=O)C2O)OC(CO)C(O)C1O` (stereo not drawn) [LLO C10], the “activity as LLO substrate” value on OST3 complex [1] was “no detectable activity”.
On to ADTYANATSDVL [Peptide 5], for which the “% inhibition of TAMRA-DANYTK glycopeptide formation” value on OST3 complex [2] turned out to be 50%.
A word on the IC50: it is the concentration needed to halve the response being measured. “GlcNAc2-(OH)CPP-(S)-citronellylneryl [Ia]”: the IC50 in the assay with yeast OST3 complex is 44 µM. Further, the “relative inhibitory potency, in words” value with yeast OST3 complex (OST3 complex) is given as “more potent inhibitor of the yeast OST3 complex than Ib”.
Take “GlcNAc2-CPP-(S)-citronellylfarnesyl [Ib]”: the IC50 in the assay with TbStt3A was 26 ± 3 µM; in the assay on yeast OST3 complex it was 198 µM.
With “TAMRA-ADTYANATSDVL [TAMRA-labeled Peptide 5]”, the “Turnover after 5 min” value on OST3 complex [3] (150 µM LLO C20) was found to be 10%. Also, the Glycopeptide detected entry on OST3 complex [3] (150 µM LLO C20, 5 min) is reported as “Yes”. The molecule also registered a Relative turnover at OST3 complex [3] (TAMRA-DANYTK turnover defined as 100 %, 5 min, 150 µM LLO C20) of 167%.

B1: TAMRA-DANYTK-NH2 (peptide)
peptide: {5‑TAMRA}-DANYTK-NH2
SMILES: C[C@H](NC(=O)[C@H](CC(=O)O)NC(=O)c1ccc(-c2c3ccc(N(C)C)cc3[o+]c3cc(N(C)C)ccc23)c(C(=O)[O-])c1)C(=O)N[C@@H](CC(N)=O)C(=O)N[C@@H](Cc1ccc(O)cc1)C(=O)N[C@H](C(=O)N[C@@H](CCCCN)C(N)=O)[C@@H](C)O
As to B1, in assay [4], the apparent KM of the peptide in the in vitro glycosylation assay (Michaelis-Menten fit; about 1 μM OST3 complex, 150 μM LLO C20, 10-400 μM peptide, 30 °C) was found to be 201 µM.

B2: TAMRA-YANATS (peptide)
peptide: {5‑TAMRA}-YANATS-NH2
SMILES: C[C@H](NC(=O)[C@H](Cc1ccc(O)cc1)NC(=O)c1ccc(-c2c3ccc(N(C)C)cc3[o+]c3cc(N(C)C)ccc23)c(C(=O)[O-])c1)C(=O)N[C@@H](CC(N)=O)C(=O)N[C@@H](C)C(=O)N[C@H](C(=O)N[C@@H](CO)C(N)=O)[C@@H](C)O
For B2, the apparent KM of the peptide in the in vitro glycosylation assay (Michaelis-Menten fit; 0.1 μM OST6 complex, 100 μM LLO C20, varying peptide, 30 °C) in assay [5] is 44.8 µM. In addition, the apparent KM of the peptide in the in vitro glycosylation assay (Michaelis-Menten fit; 0.1 μM OST3 complex, 100 μM LLO C20, 10-500 μM peptide, 30 °C) in assay [4] is 55.6 µM.
